Measured values published in patent US20160129089A1, “COMBINATION THERAPY” (ANTISENSE THERAPEUTICS LTD, priority 2013, published 2016).
e = 2'-O-(2-methoxyethyl) (MOE); d = 2'-deoxy (DNA)

The substances below were run on human growth hormone receptor mRNA (assay: Inhibition of human growth hormone receptor mRNA levels by antisense oligonucleotides, quantitative real-time PCR, MCF7 cells). Settings: averages from three experiments.
Assay type: cell-based
Set-up: concentration or dose not given beside the values
Method: “Target site” indicates the first (5′-most) nucleotide number on the particular target sequence to which the oligonucleotide binds. “% Inhib” indicates the inhibitory effect on hGHR mRNA levels by quantitative real-time PCR. Data are averages from three experiments in which MCF7 cells were treated with the antisense oligonucleotides.
All oligonucelotides in Table 1 are chimeric oligonucleotides (“gapmers”), 20 nucleotides in length, composed of a central “gap” region consisting of ten 2′-deoxynucleotides, which is flanked on both sides (5′ and 3′ directions) by five-nucleotide “wings”. The wings are composed of 2′-methoxyethyl (2′-MOE) nucleotides. The internucleoside (backbone) linkages are phosphorothioate (P═S) throughout the oligonucleotide. All uracils are 5-methyluracils (^MeU). Typically, the oligonucleotide is synthesized using 2-methoxyethyl modified thymidines not 5-methyluracils. All pyrimidines are C5 methylated (i.e., U, T, C are C5 methylated).

Row | Substance | % INHIB (inhibitory effect on hGHR mRNA levels) [%]
1 | 272321 (antisense AACCCAAGAGTCATCACTGT; sugars from the 5' end e5 d10 e5, all phosphorothioate, methylation of C not given here) [compound 272321] | 64
2 | 272322 (antisense CTGGCTCATCAATATCTAGC; sugars from the 5' end e5 d10 e5, all phosphorothioate, methylation of C not given here) [compound 272322] | 84
3 | 272323 (antisense TGTGTCTGATTCCTCAGTCT; sugars from the 5' end e5 d10 e5, all phosphorothioate, methylation of C not given here) [compound 272323] | 67
4 | 272324 (antisense TATGTCATTGGCATTGAAAT; sugars from the 5' end e5 d10 e5, all phosphorothioate, methylation of C not given here) [compound 272324] | 53
5 | 272325 (antisense AAGGCATAAGAGATCTGCTT; sugars from the 5' end e5 d10 e5, all phosphorothioate, methylation of C not given here) [compound 272325] | 66
6 | 272326 (antisense ACTCAGCTCCTTCAGTAGGA; sugars from the 5' end e5 d10 e5, all phosphorothioate, methylation of C not given here) [compound 272326] | 77
7 | 272327 (antisense GGACATCCCTGCCTTATTCT; sugars from the 5' end e5 d10 e5, all phosphorothioate, methylation of C not given here) [compound 272327] | 60
8 | 272328 (antisense GGCATTGTCCATAAGGAAGT; sugars from the 5' end e5 d10 e5, all phosphorothioate, methylation of C not given here) [compound 272328] | 85
9 | 272329 (antisense ACTTTTTGGCATCTGCCTCA; sugars from the 5' end e5 d10 e5, all phosphorothioate, methylation of C not given here) [compound 272329] | 63
10 | 272330 (antisense GATGCACTTTTTGGCATCTG; sugars from the 5' end e5 d10 e5, all phosphorothioate, methylation of C not given here) [compound 272330] | 47
11 | 272331 (antisense CAGTCGCATTGAGTATGAGG; sugars from the 5' end e5 d10 e5, all phosphorothioate, methylation of C not given here) [compound 272331] | 67
12 | 272332 (antisense CTCTTTGTCAGGCAAGGGCA; sugars from the 5' end e5 d10 e5, all phosphorothioate, methylation of C not given here) [compound 272332] | 75
13 | 272333 (antisense GTGCTCACATAGCCACATGA; sugars from the 5' end e5 d10 e5, all phosphorothioate, methylation of C not given here) [compound 272333] | 72
14 | 272334 (antisense AAGAAAGGCTAAGGCATGAT; sugars from the 5' end e5 d10 e5, all phosphorothioate, methylation of C not given here) [compound 272334] | 61
15 | 272335 (antisense AAATACGTAGCTCTTGGGAA; sugars from the 5' end e5 d10 e5, all phosphorothioate, methylation of C not given here) [compound 272335] | 47
16 | 272336 (antisense CAATCACTGCTACTAAACAG; sugars from the 5' end e5 d10 e5, all phosphorothioate, methylation of C not given here) [compound 272336] | 69
17 | 272337 (antisense AAACATAGCCATTCAATGCT; sugars from the 5' end e5 d10 e5, all phosphorothioate, methylation of C not given here) [compound 272337] | 39
18 | 272338 (antisense GTGCTATGGTTTGCATTCAA; sugars from the 5' end e5 d10 e5, all phosphorothioate, methylation of C not given here) [compound 272338] | 78

Row | Substance | % INHIB (inhibitory effect on hGHR mRNA levels) [%]
19 | 272339 (antisense GTTTTACATATCCAAACTAT; sugars from the 5' end e5 d10 e5, all phosphorothioate, methylation of C not given here) [compound 272339] | 72
20 | 272340 (antisense CATCAACCAAGATTTGGTGA; sugars from the 5' end e5 d10 e5, all phosphorothioate, methylation of C not given here) [compound 272340] | 69
21 | 272341 (antisense GAGGCTATAGATCTTATCTC; sugars from the 5' end e5 d10 e5, all phosphorothioate, methylation of C not given here) [compound 272341] | 65
22 | 272342 (antisense TAGTGAGAAAGAAAGTTTCT; sugars from the 5' end e5 d10 e5, all phosphorothioate, methylation of C not given here) [compound 272342] | 45
23 | 272343 (antisense AATGCTCTCAAGAATGATGT; sugars from the 5' end e5 d10 e5, all phosphorothioate, methylation of C not given here) [compound 272343] | 48
24 | 272344 (antisense ACACTCAATTCTAGCTTTTC; sugars from the 5' end e5 d10 e5, all phosphorothioate, methylation of C not given here) [compound 272344] | 60
25 | 272345 (antisense CATCTATTACAAATAACATG; sugars from the 5' end e5 d10 e5, all phosphorothioate, methylation of C not given here) [compound 272345] | 24
26 | 272346 (antisense CTCTTGGAGAAAACCATAGC; sugars from the 5' end e5 d10 e5, all phosphorothioate, methylation of C not given here) [compound 272346] | 67
27 | 272347 (antisense TCTACACTGATGATACTTTA; sugars from the 5' end e5 d10 e5, all phosphorothioate, methylation of C not given here) [compound 272347] | 62
28 | 272348 (antisense CACAGCTTTGAATTGAATTA; sugars from the 5' end e5 d10 e5, all phosphorothioate, methylation of C not given here) [compound 272348] | 57
29 | 272349 (antisense AGTCTTCCAAACACACAGCT; sugars from the 5' end e5 d10 e5, all phosphorothioate, methylation of C not given here) [compound 272349] | 68
30 | 272350 (antisense AGGCTGTTGTGAAATAGTAA; sugars from the 5' end e5 d10 e5, all phosphorothioate, methylation of C not given here) [compound 272350] | 67
31 | 272351 (antisense ATAGAAATGTTGTCAGGCTG; sugars from the 5' end e5 d10 e5, all phosphorothioate, methylation of C not given here) [compound 272351] | 57
32 | 272352 (antisense CCAAAATGACATTCTGAGAC; sugars from the 5' end e5 d10 e5, all phosphorothioate, methylation of C not given here) [compound 272352] | 77
33 | 272353 (antisense ATAATGGCTTATGTGGCCAC; sugars from the 5' end e5 d10 e5, all phosphorothioate, methylation of C not given here) [compound 272353] | 72
34 | 272354 (antisense AGTTATGTGACCCTGATTGA; sugars from the 5' end e5 d10 e5, all phosphorothioate, methylation of C not given here) [compound 272354] | 65
35 | 272355 (antisense TTGAGTGTTCCTAAAATGAA; sugars from the 5' end e5 d10 e5, all phosphorothioate, methylation of C not given here) [compound 272355] | 24
36 | 272356 (antisense ATGGAGGCTGGAGGTTCAAA; sugars from the 5' end e5 d10 e5, all phosphorothioate, methylation of C not given here) [compound 272356] | 63
